How the values were obtained:
hCA I = molecular target: T1, hCA I (Homo sapiens, UniProt P00915); assay: Esterase activity assay with 4-nitrophenylacetate as substrate, hCA I; format: biochemical; settings: for IC50: 4-nitrophenylacetate substrate, pH 7.4, 25 °C, enzyme purified from human erythrocytes, errors 2–5%, three assays; for hCA I inhibition, result in words: ranking within the series
T1 construct: from tissue; host or cells: human erythrocytes (fresh human blood)
Description: (§1) Erythrocytes were purified from fresh human blood obtained from the Blood Centre of the Research Hospital at Atatürk University. The blood samples were centrifuged at 1500 rpm for 15 min and the plasma and buffy coat were removed. The red cells were isolated and washed twice with 0.9% NaCl, and hemolyzed with 1.5 volumes of ice-cold water. The ghost and intact cells were removed by centrifugation at 20 000 rpm for 30 min at 4 °C. The pH of the hemolysate was adjusted to 8.7 with solid Tris.[27] […] The affinity gel was washed with 25 mM Tris–HCl/22 mM Na2SO4 (pH 8.7). The human carbonic anhydrase (hCA I and hCA II) isozymes were eluted with 1 M NaCl/25 mM Na2HPO4 (pH 6.3) and 0.1 M CH3COONa/0.5 M NaClO4 (pH 5.6), respectively. All procedures were performed at 4 °C.[27]
(§2) Carbonic anhydrase activity was assayed by following the change in absorbance at 348 nm of 4-nitrophenylacetate (NPA) to 4-nitrophenylate ion over a period of 3 min at 25 °C using a spectrophotometer (Shimadzu UV-1800) according to the method described by Verpoorte et al.[28] The enzymatic reaction, in a total volume of 3.0 mL, contained 1.4 mL 0.05 M Tris–SO4 buffer (pH 7.4), 1 mL 3 mM 4-nitrophenylacetate, 0.5 mL H2O and 0.1 mL enzyme solution. A reference measurement was obtained by preparing the same cuvette without enzyme solution. The inhibitory effects of compounds were examined. All compounds were tested in triplicate at each concentration used. Different inhibitor concentrations were used. Control cuvette activity in the absence of inhibitor was taken as 100%. For each inhibitor an activity (%)–[inhibitor] graphs were drawn.[29]

hCA II = molecular target: T2, hCA II (Homo sapiens, UniProt P00918); assay: Esterase activity assay with 4-nitrophenylacetate as substrate, hCA II; format: biochemical; settings: 4-nitrophenylacetate substrate, pH 7.4, 25 °C, enzyme purified from human erythrocytes, errors 2–5%, three assays
T2 construct: from tissue; host or cells: human erythrocytes (fresh human blood)
Description: as §1, §2

T1 sequence (P00915 whole entry): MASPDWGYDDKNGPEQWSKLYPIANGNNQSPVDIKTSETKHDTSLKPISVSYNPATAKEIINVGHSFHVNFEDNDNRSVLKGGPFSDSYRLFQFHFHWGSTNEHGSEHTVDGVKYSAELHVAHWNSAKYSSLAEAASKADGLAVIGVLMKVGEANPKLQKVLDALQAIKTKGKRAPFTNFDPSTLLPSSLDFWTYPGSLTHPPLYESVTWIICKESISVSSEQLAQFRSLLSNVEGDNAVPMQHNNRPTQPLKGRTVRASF

Row | IC50 (hCA I) [µM] | IC50 (hCA II) [µM] | Structure (SMILES) | hCA I inhibition, result in words (hCA I)
1 | 0.071 | 0.0544 | C[N+]1(CCOc2cc(CO[Si]3(OCc4cc(OCC[N+]5(C)CCOCC5)cc(OCC[N+]5(C)CCOCC5)c4)n4c5c6ccccc6c4N=C4N=C(N=c6c7ccccc7c(n63)=NC3=NC(=N5)c5ccccc53)c3ccccc34)cc(OCC[N+]3(C)CCOCC3)c2)CCOCC1 [ZM-1-SiQ] | 
2 | 0.0243 | 0.0363 | CC[N+](C)(CC)c1cccc(OCCOCCO[Si]2(OCCOCCOc3cccc([N+](C)(CC)CC)c3)n3c4c5ccccc5c3N=C3N=C(N=c5c6ccccc6c(n52)=NC2=NC(=N4)c4ccccc42)c2ccccc23)c1 [ZM-5-SiQ] | 
3 | 0.084 | 0.0762 | CCN(CC)c1cccc(OCCOCCO[Si]2(OCCOCCOc3cccc(N(CC)CC)c3)n3c4c5ccccc5c3N=C3N=C(N=c5c6ccccc6c(n52)=NC2=NC(=N4)c4ccccc42)c2ccccc23)c1 [ZM-5-Si] | 

Row | Structure (SMILES) | IC50 (hCA I) [µM] | IC50 (hCA II) [µM] | hCA I inhibition, result in words (hCA I)
4 | c1ccc2c(c1)C1=NC2=Nc2c3ccccc3c3n2[Si](OCc2cc(OCCN4CCOCC4)cc(OCCN4CCOCC4)c2)(OCc2cc(OCCN4CCOCC4)cc(OCCN4CCOCC4)c2)n2c(c4ccccc4c2=NC2=NC(=N3)c3ccccc32)=N1 [ZM-1-Si] | 0.165 | 0.121 | moderately inhibited
5 | CN(C)c1ccc(/C=C/C(=O)c2ccc(O[Si]3(Oc4ccc(C(=O)/C=C/c5ccc(N(C)C)cc5)cc4)n4c5c6ccccc6c4N=C4N=C(N=c6c7ccccc7c(n63)=NC3=NC(=N5)c5ccccc53)c3ccccc34)cc2)cc1 [ZT-Si, Bis[(2E)-3-[4-(dimethylamino)phenyl]-1-(4-phenoxy)prop-2-en-1-one]phthalocyaninato silicon(IV)] | 0.0178 | 0.0172 | among the best inhibitors

— publication PMC9078821, “The synthesis of axially disubstituted silicon phthalocyanines, their quaternized derivatives and first inhibitory effect on human cytosolic carbonic anhydrase isozymes hCA I and II” (RSC Advances, 2018)
